Measurements reported in PubChem BioAssay AID342 (DTP/NCI, 2004).
Values joined by “and” are separate entries in the source; they are usually repeats but may differ in a detail not shown here. Equal entries are not always repeated.

System: Swiss mice, Sarcoma 180 sc, mean tumor weight T/C
Assay: NCI In Vivo Anticancer Drug Screen. Data for tumor model Sarcoma 180 (subcutaneous) in Swiss mice
Settings: endpoint: mean tumor weight, higher = larger tumour
Procedure, shortened: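 Transplantable tumors were established in mice, compound was given, then survival or tumor size was recorded. The treated value was divided by the vehicle-control value.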

Q: How did the T/C (dose: 0.5 mg/kg/injection, schedule: Q01DX007 (ip), vehicle: saline) turn out when `COc1ccc2c3c([nH]c2c1)[C@H]1C[C@H]2[C@H](C[C@@H](O)[C@H](OC)[C@H]2CO)CN1CC3` was run?
A: 120 % of control

Q: And the T/C (dose: 1.0 mg/kg/injection, schedule: Q01DX007 (ip), vehicle: saline)?
A: 121 % of control

Q: What about the T/C (dose: 2.0 mg/kg/injection, schedule: Q01DX007 (ip), vehicle: saline) of the same compound?
A: 95 % of control

Q: What about the T/C (dose: 4.0 mg/kg/injection, schedule: Q01DX007 (ip), vehicle: saline) of the same compound?
A: 94 % of control

Q: What about the T/C (dose: 8.0 mg/kg/injection, schedule: Q01DX007 (ip), vehicle: saline) of the same compound?
A: 102 % of control

Q: And the T/C (dose: 16.0 mg/kg/injection, schedule: Q01DX007 (ip), vehicle: saline)?
A: 77 % of control

Q: What about the T/C (dose: 32.0 mg/kg/injection, schedule: Q01DX007 (ip), vehicle: saline) of the same compound?
A: 102 % of control

Q: Which T/C (dose: 41.0 mg/kg/injection, schedule: Q01DX007 (ip), vehicle: carboxymethylcellulose (CMC)) does the source give for `O=[n+]1c2c(n([O-])c3ccccc31)-c1cccc3cccc-2c13` here?
A: 69 % of control

Q: What about the T/C (dose: 210.0 mg/kg/injection, schedule: Q01DX007 (ip), vehicle: carboxymethylcellulose (CMC)) of the same compound?
A: 10 % of control

Q: What about the T/C (dose: 315.0 mg/kg/injection, schedule: Q01DX007 (ip), vehicle: carboxymethylcellulose (CMC)) of the same compound?
A: 25 % of control

Q: With `c1ncc2[nH]cnc2n1` as the compound, how does the T/C (dose: 31.25 mg/kg/injection, schedule: Q#A X014 (ip), vehicle: carboxymethylcellulose (CMC)) read?
A: 90 % of control

Q: What about the T/C (dose: 31.31 mg/kg/injection, schedule: Q#A X014 (ip), vehicle: carboxymethylcellulose (CMC)) of the same compound?
A: 108 % of control

Q: What about the T/C (dose: 57.5 mg/kg/injection, schedule: Q01DX007 (ip), vehicle: carboxymethylcellulose (CMC)) of the same compound?
A: 70 % of control

Q: And the T/C (dose: 62.5 mg/kg/injection, schedule: Q#A X014 (ip), vehicle: carboxymethylcellulose (CMC))?
A: 120 % of control

Q: And the T/C (dose: 62.62 mg/kg/injection, schedule: Q#A X014 (ip), vehicle: carboxymethylcellulose (CMC))?
A: 91 % of control

Q: And the T/C (dose: 76.65 mg/kg/injection, schedule: Q#A X014 (ip), vehicle: carboxymethylcellulose (CMC))?
A: 120 % of control

Q: What about the T/C (dose: 115.0 mg/kg/injection, schedule: Q01DX007 (ip), vehicle: carboxymethylcellulose (CMC)) of the same compound?
A: 67 % of control

Q: And the T/C (dose: 115.0 mg/kg/injection, schedule: Q#A X014 (ip), vehicle: carboxymethylcellulose (CMC))?
A: 93 % of control

Q: And the T/C (dose: 125.0 mg/kg/injection, schedule: Q#A X014 (ip), vehicle: carboxymethylcellulose (CMC))?
A: 59 % of control

Q: And the T/C (dose: 125.25 mg/kg/injection, schedule: Q#A X014 (ip), vehicle: carboxymethylcellulose (CMC))?
A: 66 % of control

Q: And the T/C (dose: 153.3 mg/kg/injection, schedule: Q#A X014 (ip), vehicle: carboxymethylcellulose (CMC))?
A: 95 % of control

Q: And the T/C (dose: 196.4 mg/kg/injection, schedule: Q01DX007 (ip), vehicle: carboxymethylcellulose (CMC))?
A: 88 % of control

Q: And the T/C (dose: 200.4 mg/kg/injection, schedule: Q01DX007 (ip), vehicle: carboxymethylcellulose (CMC))?
A: 99 % of control

Q: And the T/C (dose: 230.0 mg/kg/injection, schedule: Q01DX007 (ip), vehicle: carboxymethylcellulose (CMC))?
A: 42 % of control

Q: What about the T/C (dose: 230.0 mg/kg/injection, schedule: Q#A X014 (ip), vehicle: carboxymethylcellulose (CMC)) of the same compound?
A: 39 % of control

Q: And the T/C (dose: 245.5 mg/kg/injection, schedule: Q01DX007 (ip), vehicle: carboxymethylcellulose (CMC))?
A: 90 % of control

Q: What about the T/C (dose: 250.0 mg/kg/injection, schedule: Q#A X014 (ip), vehicle: carboxymethylcellulose (CMC)) of the same compound?
A: 27 % of control

Q: What about the T/C (dose: 250.5 mg/kg/injection, schedule: Q01DX007 (ip), vehicle: carboxymethylcellulose (CMC)) of the same compound?
A: 111 % of control

Q: What about the T/C (dose: 250.5 mg/kg/injection, schedule: Q#A X014 (ip), vehicle: carboxymethylcellulose (CMC)) of the same compound?
A: 9 % of control

Q: And the T/C (dose: 327.3 mg/kg/injection, schedule: Q01DX007 (ip), vehicle: carboxymethylcellulose (CMC))?
A: 44 % of control

Q: What about the T/C (dose: 334.0 mg/kg/injection, schedule: Q01DX007 (ip), vehicle: carboxymethylcellulose (CMC)) of the same compound?
A: 68 % of control

Q: And the T/C (dose: 460.0 mg/kg/injection, schedule: Q01DX007 (ip), vehicle: carboxymethylcellulose (CMC))?
A: 13 % of control

Q: What about the T/C (dose: 491.0 mg/kg/injection, schedule: Q01DX007 (ip), vehicle: carboxymethylcellulose (CMC)) of the same compound?
A: 48 % of control

Q: And the T/C (dose: 501.0 mg/kg/injection, schedule: Q01DX007 (ip), vehicle: carboxymethylcellulose (CMC))?
A: 12 % of control

Q: Which T/C (dose: 40.0 mg/kg/injection, schedule: Q01DX007 (ip), vehicle: carboxymethylcellulose (CMC)) does the source give for `CC1CC(C)C(O)C(C(O)CC2CC(=O)NC(=O)C2)C1` (centres undefined) here?
A: 84 % of control

Q: What about the T/C (dose: 62.0 mg/kg/injection, schedule: Q01DX007 (ip), vehicle: carboxymethylcellulose (CMC)) of the same compound?
A: 55 % of control

Q: What about the T/C (dose: 93.0 mg/kg/injection, schedule: Q01DX007 (ip), vehicle: carboxymethylcellulose (CMC)) of the same compound?
A: 44 % of control

Q: `O=C(O)CCCNC(=O)c1ccc([N+](=O)[O-])cc1` was tested. Which T/C (dose: 125.0 mg/kg/injection, schedule: Q01DX007 (ip), vehicle: methylcellulose (MC)) did it give?
A: 67 % of control

Q: What about the T/C (dose: 250.0 mg/kg/injection, schedule: Q01DX007 (ip), vehicle: methylcellulose (MC)) of the same compound?
A: 78 % of control

Q: `OCC1OC(n2cnc3c(Cl)ncnc32)C(O)C1O` (centres undefined) was tested. Which T/C (dose: 5.9 mg/kg/injection, schedule: Q01DX007 (ip), vehicle: carboxymethylcellulose (CMC)) did it give?
A: 102 % of control

Q: What about the T/C (dose: 11.75 mg/kg/injection, schedule: Q01DX007 (ip), vehicle: carboxymethylcellulose (CMC)) of the same compound?
A: 104 % of control

Q: What about the T/C (dose: 23.5 mg/kg/injection, schedule: Q01DX007 (ip), vehicle: carboxymethylcellulose (CMC)) of the same compound?
A: 105 % of control

Q: What about the T/C (dose: 47.0 mg/kg/injection, schedule: Q01DX007 (ip), vehicle: carboxymethylcellulose (CMC)) of the same compound?
A: 113 % of control

Q: What about the T/C (dose: 50.0 mg/kg/injection, schedule: Q01DX007 (ip), vehicle: carboxymethylcellulose (CMC)) of the same compound?
A: 75 % of control

Q: What about the T/C (dose: 94.0 mg/kg/injection, schedule: Q01DX007 (ip), vehicle: carboxymethylcellulose (CMC)) of the same compound?
A: 38 % of control

Q: What about the T/C (dose: 100.0 mg/kg/injection, schedule: Q01DX007 (ip), vehicle: carboxymethylcellulose (CMC)) of the same compound?
A: 110 % of control

Q: And the T/C (dose: 187.5 mg/kg/injection, schedule: Q01DX007 (ip), vehicle: carboxymethylcellulose (CMC))?
A: 29 % of control

Q: What about the T/C (dose: 200.0 mg/kg/injection, schedule: Q01DX007 (ip), vehicle: carboxymethylcellulose (CMC)) of the same compound?
A: 102 % of control

Q: And the T/C (dose: 375.0 mg/kg/injection, schedule: Q01DX007 (ip), vehicle: carboxymethylcellulose (CMC))?
A: 36 % of control

Q: And the T/C (dose: 400.0 mg/kg/injection, schedule: Q01DX007 (ip), vehicle: carboxymethylcellulose (CMC))?
A: 70 % of control

Q: What about the T/C (dose: 750.0 mg/kg/injection, schedule: Q01DX007 (ip), vehicle: carboxymethylcellulose (CMC)) of the same compound?
A: 36 % of control

Q: What about the T/C (dose: 800.0 mg/kg/injection, schedule: Q01DX007 (ip), vehicle: carboxymethylcellulose (CMC)) of the same compound?
A: 122 % of control

Q: With `O=C(O)C(=O)O.O=C([O-])C(=O)O.O=C([O-])C(=O)O.O=C([O-])C(=O)[O-].[K+].[U]` as the compound, how does the T/C (dose: 7.5 mg/kg/injection, schedule: Q#A X014 (ip), vehicle: saline) read?
A: 51 % of control and 59 % of control

Q: And the T/C (dose: 11.25 mg/kg/injection, schedule: Q#A X014 (ip), vehicle: saline)?
A: 21 % of control

Q: For `O=C(O)CCc1c[nH]c2ccc(N(CCCl)CCCl)cc12`, which T/C (dose: 2.0 mg/kg/injection, schedule: Q01DX007 (ip), vehicle: carboxymethylcellulose (CMC)) is on record?
A: 47 % of control

Q: And the T/C (dose: 4.0 mg/kg/injection, schedule: Q01DX007 (ip), vehicle: carboxymethylcellulose (CMC))?
A: 32 % of control

Q: Which T/C (dose: 12.5 mg/kg/injection, schedule: Q#A X014 (ip), vehicle: other) does the source give for `O=P(Oc1ccccc1)(OP(=O)(Oc1ccccc1)N(CCCl)CCCl)N(CCCl)CCCl` (centres undefined) here?
A: 85 % of control

Q: What about the T/C (dose: 25.0 mg/kg/injection, schedule: Q#A X014 (ip), vehicle: other) of the same compound?
A: 76 % of control

Q: What about the T/C (dose: 50.0 mg/kg/injection, schedule: Q#A X014 (ip), vehicle: other) of the same compound?
A: 112 % of control
